From ChEMBL document CHEMBL1201862, “PubChem BioAssay data set” (2004)
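Step 1: Grow cells in 96-well plates. Step 2: Expose to compound for 48 hours at 5 concentrations. Step 3: Interpolate endpoints linearly; if unreached, use highest concentration. At the GI50, growth is halved.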 The source made the active and inactive calls. No stated cut-off is given here; in the data, active = GI50 up to about 1.1 µM and inactive = higher.

Key:
Test in all cases: inhibition of tumour cell growth, NCI panel, 48 h
ACHN = test system: ACHN
CAKI-1 = test system: CAKI-1
HCT-116 = test system: HCT-116
HL-60 = test system: HL-60
K562 = test system: K562
M14 = test system: M14
MDA-MB-231 = test system: MDA-MB-231
MDA-N = test system: MDA-N
MOLT-4 = test system: MOLT-4
Malme-3M = test system: Malme-3M
NCI-H460 = test system: NCI-H460
NCI-H522 = test system: NCI-H522
OVCAR-4 = test system: OVCAR-4
OVCAR-5 = test system: OVCAR-5
SF-295 = test system: SF-295
SK-MEL-2 = test system: SK-MEL-2
SK-MEL-5 = test system: SK-MEL-5
SNB-19 = test system: SNB-19
UO-31 = test system: UO-31
SW-620 = test system: SW-620

| SMILES | GI50 (ACHN) | GI50 (CAKI-1) | GI50 (HCT-116) | GI50 (HL-60) | GI50 (K562) | GI50 (M14) | GI50 (MDA-MB-231) | GI50 (MDA-N) | GI50 (MOLT-4) | GI50 (Malme-3M) | GI50 (NCI-H460) | GI50 (NCI-H522) | GI50 (OVCAR-4) | GI50 (OVCAR-5) | GI50 (SF-295) | GI50 (SK-MEL-2) | GI50 (SK-MEL-5) | GI50 (SNB-19) | GI50 (UO-31) | GI50 (SW-620) |
| --- | --- | --- | --- | --- | --- | --- | --- | --- | --- | --- | --- | --- | --- | --- | --- | --- | --- | --- | --- | --- |
| COc1ccccc1Cn1c2c(c3c(C(=O)NCCN(C)C)c(O)ccc31)C(=O)c1ccccc1C2=O | 1.64 µM (inactive) | 2.04 µM (inactive) | 0.759 µM (active) | 1.01 µM (active) | 0.977 µM (active) | 1.32 µM (inactive) | 1.99 µM (inactive) | 1.4 µM (inactive) | 1.06 µM (active) | 1.63 µM (inactive) | 2.09 µM (inactive) | 1.69 µM (inactive) | 1.65 µM (inactive) | 1.94 µM (inactive) | 1.87 µM (inactive) | 1.69 µM (inactive) | 1.74 µM (inactive) | 2.03 µM (inactive) | 1.75 µM (inactive) | – |
| N#CC(C#N)=C1C(=Cc2ccc(OCCCCCCCCCCSSCCCCCCCCCCOc3ccc(C=C4C(=C(C#N)C#N)c5ccccc5C4=C(C#N)C#N)cc3)cc2)C(=C(C#N)C#N)c2ccccc21 | 36.7 µM (inactive) | 24.7 µM (inactive) | 17.1 µM (inactive) | 0.0465 µM (active) | 23.7 µM (inactive) | 20.3 µM (inactive) | 28.6 µM (inactive) | 34.8 µM (inactive) | 23.6 µM (inactive) | – | 22.1 µM (inactive) | 17.8 µM (inactive) | 21.8 µM (inactive) | 20.8 µM (inactive) | 20.1 µM (inactive) | 25.8 µM (inactive) | 22.1 µM (inactive) | – | 18.2 µM (inactive) | 23.3 µM (inactive) |
| COC(=O)[C@]1(c2cc3ccccc3n2S(=O)(=O)c2ccccc2)CC2CN(C(=O)OCc3ccccc3)C1C1OC(C)(C)OC21 (some centres undefined) | > 100 µM (inactive) | > 100 µM (inactive) | > 100 µM (inactive) | > 100 µM (inactive) | – | 80.5 µM (inactive) | > 100 µM (inactive) | > 100 µM (inactive) | > 100 µM (inactive) | 2.09 µM (inactive) | > 100 µM (inactive) | 1.31 µM (inactive) | > 100 µM (inactive) | > 100 µM (inactive) | > 100 µM (inactive) | > 100 µM (inactive) | > 100 µM (inactive) | – | > 100 µM (inactive) | > 100 µM (inactive) |
| CC1(C)Cc2c(c3ccccc3c3nc4c(nc23)c2c(c3ccccc34)OC(C)(C)C2)O1 | > 100 µM (inactive) | > 100 µM (inactive) | > 100 µM (inactive) | > 100 µM (inactive) | – | > 100 µM (inactive) | > 100 µM (inactive) | > 100 µM (inactive) | > 100 µM (inactive) | > 100 µM (inactive) | > 100 µM (inactive) | > 100 µM (inactive) | > 100 µM (inactive) | > 100 µM (inactive) | > 100 µM (inactive) | > 100 µM (inactive) | > 100 µM (inactive) | > 100 µM (inactive) | – | > 100 µM (inactive) |
| CC(C)(C)[Si](C)(C)OC1CCOC1(O)c1ccccn1 (centres undefined) | > 100 µM (inactive) | > 100 µM (inactive) | > 100 µM (inactive) | 32 µM (inactive) | 57.9 µM (inactive) | > 100 µM (inactive) | > 100 µM (inactive) | > 100 µM (inactive) | 57.3 µM (inactive) | > 100 µM (inactive) | > 100 µM (inactive) | > 100 µM (inactive) | > 100 µM (inactive) | > 100 µM (inactive) | > 100 µM (inactive) | > 100 µM (inactive) | > 100 µM (inactive) | > 100 µM (inactive) | > 100 µM (inactive) | > 100 µM (inactive) |
| COc1cc2cc(C(=O)N3CC(CCl)c4c3cc([N+](C)(C)Cc3ccc([N+](=O)[O-])n3C)c3ccccc43)[nH]c2c(OC)c1OC (centres undefined) | 0.381 µM (active) | 1.71 µM (inactive) | 1.48 µM (inactive) | 1.15 µM (inactive) | – | 3.61 µM (inactive) | 2.42 µM (inactive) | 2.13 µM (inactive) | 1.93 µM (inactive) | 3.79 µM (inactive) | 0.327 µM (active) | 0.0638 µM (active) | 1.88 µM (inactive) | 6.05 µM (inactive) | 1.31 µM (inactive) | 0.374 µM (active) | 1.32 µM (inactive) | 3.44 µM (inactive) | 1.17 µM (inactive) | 1.69 µM (inactive) |
| Oc1cc(-c2ccccc2)nc2c(S)cccc12 | 95.3 µM (inactive) | – | > 100 µM (inactive) | 97.9 µM (inactive) | 81.3 µM (inactive) | > 100 µM (inactive) | 62.5 µM (inactive) | > 100 µM (inactive) | 47.3 µM (inactive) | > 100 µM (inactive) | > 100 µM (inactive) | > 100 µM (inactive) | > 100 µM (inactive) | > 100 µM (inactive) | > 100 µM (inactive) | – | 37.1 µM (inactive) | > 100 µM (inactive) | – | > 100 µM (inactive) |
